Values quoted from earlier work as cited in patent US5668134A, “Method for preventing or reducing photosensitivity and/or phototoxicity reactions to medications” (priority 1994, dated 1997).

Tested on: skin
Conditions: Table 1; cited from earlier work

Compound	Action Spectrum	Type of Photoreaction
CCn1cc(C(=O)O)c(=O)c2ccc(C)nc21 [nalidixic acid]	320-400 nm	
CNC1=Nc2ccc(Cl)cc2C(c2ccccc2)=[N+]([O-])C1 [Chlordiazepoxide]	290-360 nm	Photoallergic
O=c1[nH]cc(F)c(=O)[nH]1 [fluorouracil, 5-fluoro-2,4 (1H,3H)-pyrimidinedione]		Phototoxic
CCCCNC(=O)NS(=O)(=O)c1ccc(C)cc1 [tolbutamide]	290-360 nm	
CN(C)N=Nc1[nH]cnc1C(N)=O [DTIC]		Phototoxic
C=C[C@H]1C[N@@]2CC[C@H]1C[C@H]2[C@H](O)c1ccnc2ccc(OC)cc12 [quinine]		Photoallergic
C=C[C@H]1C[N@@]2CC[C@H]1C[C@@H]2[C@@H](O)c1ccnc2ccc(OC)cc12 [Quinidine]		Photoallergic
CN(Cc1cnc2nc(N)nc(N)c2n1)c1ccc(C(=O)N[C@@H](CCC(=O)O)C(=O)O)cc1 [methotrexate]		Phototoxic
CC[C@]1(O)C[C@@H]2CN(CCc3c([nH]c4ccccc34)[C@@](C(=O)OC)(c3cc4c(cc3OC)N(C)[C@H]3[C@@](O)(C(=O)OC)[C@H](OC(C)=O)[C@]5(CC)C=CCN6CC[C@]43[C@@H]65)C2)C1 [vinblastine]		Phototoxic

Same assay, conditions: cited from earlier work

Compound	Action Spectrum
COC1=CC(=O)C[C@@H](C)[C@]12Oc1c(Cl)c(OC)cc(OC)c1C2=O [griseofulvin]	320-400 nm
C=C[C@H]1C[N@@]2CC[C@H]1C[C@H]2[C@H](O)c1ccnc2ccc(OC)cc12 [quinine]	320-400 nm
C=C[C@H]1C[N@@]2CC[C@H]1C[C@@H]2[C@@H](O)c1ccnc2ccc(OC)cc12 [Quinidine]	320-400 nm
CCCNC(=O)NS(=O)(=O)c1ccc(Cl)cc1 [chlorpropamide]	290-360 nm
